{"source": "paper PMC6881558", "about": "(Biochimica et biophysica acta. General subjects, 2019)", "key": {"[1]": {"target": "MtnN (Borrelia burgdorferi, UniProt O50860)", "test": "UV spectrophotometric MTN activity and kinetics assay, MtnN", "format": "biochemical", "details": "pH 7, mean ± SEM; for Km: substrate kinetics"}, "[2]": {"target": "Pfs (Borrelia burgdorferi, UniProt O50162)", "test": "UV spectrophotometric MTN activity and kinetics assay, Pfs", "format": "biochemical", "details": "pH 5, mean ± SEM; for Km: substrate kinetics"}, "[3]": {"target": "Bgp (Borrelia burgdorferi, UniProt Q9F952)", "test": "UV spectrophotometric MTN activity and kinetics assay, Bgp", "format": "biochemical", "details": "pH 7, mean ± SEM; for Km: substrate kinetics"}, "[4]": {"system": "Plasmodium falciparum", "details": "purine-less cell death in malarial cultures; cited from earlier work"}, "[5]": {"system": "B. burgdorferi strain N40", "test": "BacTiter-Glo bioluminescent cell viability assay", "format": "cell-based, Borrelia burgdorferi", "details": "Borreliella burgdorferi, N40, 24 h, read-out: IC50 (cell viability)"}, "[6]": {"system": "Trichomonas vaginalis", "details": "cultured parasites; cited from earlier work"}, "[7]": {"system": "C[C@H]1O[C@@H](n2cnc3c(N)ncnc32)[C@H](O)[C@@H]1O", "test": "UV spectrophotometric MTN activity and kinetics assay, Bgp", "format": "biochemical, Borrelia burgdorferi", "details": "other: Bgp, substrate kinetics, pH 7, mean ± SEM"}, "[8]": {"substrate": "C[C@H]1O[C@@H](n2cnc3c(N)ncnc32)[C@H](O)[C@@H]1O", "test": "UV spectrophotometric MTN activity and kinetics assay, MtnN", "format": "biochemical, Borrelia burgdorferi", "details": "other: MtnN, substrate kinetics, pH 7, mean ± SEM"}, "[9]": {"substrate": "C[C@H]1O[C@@H](n2cnc3c(N)ncnc32)[C@H](O)[C@@H]1O", "test": "UV spectrophotometric MTN activity and kinetics assay, Pfs", "format": "biochemical, Borrelia burgdorferi", "details": "other: Pfs, substrate kinetics, pH 5, mean ± SEM"}}, "note": "Where “and” joins values, the source holds several entries; their conditions need not be identical. Equal values may be shown once.", "data": [{"molecule": "5’-methylthioadenosine [MTA]", "values": [{"measurement": "kcat", "setting": "[1]", "value": "1.55 ± 0.083", "unit": "s⁻¹"}, {"measurement": "Km", "setting": "[1]", "value": "9.1 µM and 9.09 µM"}, {"measurement": "kcat", "setting": "[2]", "value": "1.78 ± 0.05", "unit": "s⁻¹"}, {"measurement": "Km", "setting": "[2]", "value": "0.61 ± 0.16", "unit": "µM"}, {"measurement": "kcat", "setting": "[3]", "value": "1.85 ± 0.333", "unit": "s⁻¹"}, {"measurement": "Km", "setting": "[3]", "value": "0.49 ± 0.01", "unit": "µM"}]}, {"molecule": "Nc1ncnc2c(C3N[C@H](CO)[C@@H](O)[C@H]3O)c[nH]c12", "note": "(some centres unmarked) [Immucillin-A (ImmA), Immucillin-A]", "values": [{"measurement": "IC50", "setting": "[4]", "value": 35, "unit": "nM"}]}, {"molecule": "CCCCSCC1CN(Cc2c[nH]c3c(N)ncnc23)CC1O", "note": "(centres unmarked) [BuT-DADMe-ImmA, 1-[(9-deazaadenin-9-yl)methyl]-3-hydroxy-4-(butylthiomethyl)pyrrolidine]", "values": [{"measurement": "IC50", "setting": "[5]", "value": "0.38 µg/mL and ~100 nM"}]}, {"molecule": "CC1(C)S[C@@H]2[C@H](NC(=O)[C@H](N)c3ccccc3)C(=O)N2[C@H]1C(=O)O", "note": "[ampicillin]", "values": [{"measurement": "IC50", "setting": "[5]", "value": "1.07 µg/mL and 3.01 µM"}]}, {"molecule": "Nc1ncnc2c1ncn2[C@@H]1O[C@H](CSCC[C@H](N)C(=O)O)[C@@H](O)[C@H]1O", "note": "[SAH, S-adenosylhomocysteine]", "values": [{"measurement": "kcat", "setting": "[1]", "value": "0.55 ± 0.017", "unit": "s⁻¹"}, {"measurement": "Km", "setting": "[1]", "value": "2.04 ± 0.44", "unit": "µM"}, {"measurement": "kcat", "setting": "[2]", "value": "1.57 ± 0.083", "unit": "s⁻¹"}, {"measurement": "Km", "setting": "[2]", "value": "0.75 ± 0.16", "unit": "µM"}, {"measurement": "kcat", "setting": "[3]", "value": "1.75 ± 0.2", "unit": "s⁻¹"}, {"measurement": "Km", "setting": "[3]", "value": "1.96 ± 0.67", "unit": "µM"}]}, {"molecule": "Nc1nc(F)nc2c1ncn2[C@H]1C[C@H](O)[C@@H](CO)O1", "note": "[2-fluoro-2’-deoxyadenosine]", "values": [{"measurement": "IC50", "setting": "[6]", "value": 106, "unit": "nM"}]}, {"molecule": "Bgp (Borreliella burgdorferi)", "values": [{"measurement": "Km", "setting": "[7]", "value": "1.79 ± 0.52", "unit": "µM"}, {"measurement": "kcat", "setting": "[7]", "value": "1.53 ± 0.467", "unit": "s⁻¹"}, {"measurement": "kcat/Km", "setting": "[7]", "value": "850000 ± 267000", "unit": "M⁻¹ s⁻¹"}]}, {"molecule": "CSCC1CN(Cc2c[nH]c3c(N)ncnc23)CC1O", "note": "(centres unmarked) [MT-DADMe-ImmA, 1-[(9-deazaadenin-9-yl)methyl]-3-hydroxy-4-(methylthiomethyl) pyrrolidine]", "values": [{"measurement": "IC50", "setting": "[5]", "value": "0.31 µg/mL and ~100 nM"}]}, {"molecule": "MtnN (Borreliella burgdorferi B31) (protein) NESKINTPNENSQSNILIISATKAEIEEINKIIQNKKYISIEEHRRKKKIAIGKLMDHNIITIATGVGKINTALWTSYIISKYKISHIINAGVASGIYSDKNKFIKIGDVVISTETTSYDFDLHRFGYEIGHVPEHPKKFKANTALIRKTSKIKINNITSYMGLIITGDQFIDHQTFQEIPEEFENAIAIDMESAAMAQVAYGFKIPFIIIRGISDIVNNENNYDDYKKFLKKASSSSAKIVENLIKLM", "values": [{"measurement": "Km", "setting": "[8]", "value": "10.5 µM and 10.46 ± 0.75 µM"}, {"measurement": "kcat", "setting": "[8]", "value": "0.733 ± 0.0167", "unit": "s⁻¹"}, {"measurement": "kcat/Km", "setting": "[8]", "value": "66700 ± 5000", "unit": "M⁻¹ s⁻¹"}]}, {"molecule": "Pfs (Borreliella burgdorferi B31) (protein) MILIISAMQEESEEINKILDNKEEIVLNDYLENKKIYKGKILGKDVISLTTGIGKVNAATWSSQIISKYKITHIINSGSSGGIKENSNLKILDIIVSSETAYYDFDLTKFGHKIGQVPNLPQKFKADEELLKKVANIVDNKLLNIDIHIGLILTGDQFVDNEKNLETIKKNFKDALAVDMEGAAIAQVAHIFKIPFIIIRSISDLPNNKDNHIDFNKFLKTSSINSSKMTKELIRLI", "values": [{"measurement": "Km", "setting": "[9]", "value": "1.37 ± 0.37", "unit": "µM"}, {"measurement": "kcat", "setting": "[9]", "value": "2.7 ± 0.15", "unit": "s⁻¹"}, {"measurement": "kcat/Km", "setting": "[9]", "value": "1.97e+06 ± 400000", "unit": "M⁻¹ s⁻¹"}]}]}
